Assay results from patent US11787825B2 (priority 2021, dated 2023).
Like-named read-outs stand apart in the source and are kept apart here.

[1] = 0.1N HCL, 1.0% DMSO, 24-hour incubation at ambient temperature, maximum theoretical compound concentration 100 μM
[2] = 1×PBS buffer (pH 7.4), 1.0% DMSO, 24-hour incubation at ambient temperature, maximum theoretical compound concentration 100 μM

Compound | pH 2 solubility [1] | pH 7 solubility [2] | pH 2 solubility (pH 2) | pH 7 solubility (pH 7.4)
COC(=O)N[C@@H](C)C(=O)N(c1nn(CC(F)(F)F)c2c(-c3ccc(C#CC(C)(C)S(C)(=O)=O)nc3[C@H](Cc3cc(F)cc(F)c3)NC(=O)Cn3nc(C(F)(F)F)c4c3C(F)(F)[C@@H]3C[C@H]43)ccc(Cl)c12)S(C)(=O)=O [Compound 7, methyl ((5)-1-(N-(4-chloro-7-(2-((S)-1-(2-((3bS,4aR)-5,5-difluoro-3-(trifluoromethyl)-3b,4,4a,5-tetrahydro-1H-cyclopropa[3,4]cyclopenta[1,2-c]pyrazol-1-yl)acetamido)-2-(3,5-difluorophenyl)ethyl)-6-(3-methyl-3-(methylsulfonyl)but-1-yn-1-yl)pyridin-3-yl)-1-(2,2,2-trifluoroethyl)-1H-indazol-3-yl)methylsulfonamido)-1-oxopropan-2-yl)carbamate] | 1/1 μM | 1/1 μM |  | 
CC(C)[C@H](N)C(=O)OCCCCC(=O)N(c1nn(CC(F)(F)F)c2c(-c3ccc(C#CC(C)(C)S(C)(=O)=O)nc3[C@H](Cc3cc(F)cc(F)c3)NC(=O)Cn3nc(C(F)(F)F)c4c3C(F)(F)[C@@H]3C[C@H]43)ccc(Cl)c12)S(C)(=O)=O [Compound 14] | 7 μM | 1 μM |  | 
CC(C)(C#Cc1ccc(-c2ccc(Cl)c3c(N(C(=O)[C@H](CCC(=O)O)NC(=O)C(=O)O)S(C)(=O)=O)nn(CC(F)(F)F)c23)c([C@H](Cc2cc(F)cc(F)c2)NC(=O)Cn2nc(C(F)(F)F)c3c2C(F)(F)[C@@H]2C[C@H]32)n1)S(C)(=O)=O [Compound 24, (S)-4-(carboxyformamido)-5-(N-(4-chloro-7-(2-((S)-1-(2-((3bS,4aR)-5,5-difluoro-3-(trifluoromethyl)-3b,4,4a,5-tetrahydro-111-cyclopropa[3,4]cyclopenta[1,2-c]pyrazol-1-yl)acetamido)-2-(3,5-difluorophenyl)ethyl)-6-(3-methyl-3-(methylsulfonyl)but-1-yn-1-yl)pyridin-3-yl)-1-(2,2,2-trifluoroethyl)-1H-indazol-3-yl)methylsulfonamido)-5-oxopentanoic acid] | 1 μM | 14 μM |  | 
COCCOCCOCCOCCOCC(=O)N(c1nn(CC(F)(F)F)c2c(-c3ccc(C#CC(C)(C)S(C)(=O)=O)nc3[C@H](Cc3cc(F)cc(F)c3)NC(=O)Cn3nc(C(F)(F)F)c4c3C(F)(F)[C@@H]3C[C@H]43)ccc(Cl)c12)S(C)(=O)=O [Compound 9, N-(4-chloro-7-(2-((S)-1-(2-((3bS,4aR)-5,5-difluoro-3-(trifluoromethyl)-3b,4,4a,5-tetrahydro-1H-cyclopropa[3,4]cyclopenta[1,2-c]pyrazol-1-yl)acetamido)-2-(3,5-difluorophenyl)ethyl)-6-(3-methyl-3-(methylsulfonyl)but-1-ynyl)pyridin-3-yl)-1-(2,2,2-trifluoroethyl)-1H-indazol-3-yl)-N-(methylsulfonyl)-2,5,8,11,14-pentaoxahexadecan-16-amide] | 1/1 μM | 1/1 μM |  | 
COC(=O)CCC(=O)N(c1nn(CC(F)(F)F)c2c(-c3ccc(C#CC(C)(C)S(C)(=O)=O)nc3[C@H](Cc3cc(F)cc(F)c3)NC(=O)Cn3nc(C(F)(F)F)c4c3C(F)(F)[C@@H]3C[C@H]43)ccc(Cl)c12)S(C)(=O)=O [Compound 10, methyl 4-(N-(4-chloro-7-(2-((S)-1-(2-((3bS,4aR)-5,5-difluoro-3-(trifluoromethyl)-3b,4,4a,5-tetrahydro-1H-cyclopropa[3,4]cyclopenta[1,2-c]pyrazol-1-yl)acetamido)-2-(3,5-difluorophenyl)ethyl)-6-(3-methyl-3-(methylsulfonyl)but-1-yn-1-yl)pyridin-3-yl)-1-(2,2,2-trifluoroethyl)-1H-indazol-3-yl)methylsulfonamido)-4-oxobutanoate] | 1/1 μM | 1/1 μM |  | 
CC(C)(C#Cc1ccc(-c2ccc(Cl)c3c(N(C(=O)CN)S(C)(=O)=O)nn(CC(F)(F)F)c23)c([C@H](Cc2cc(F)cc(F)c2)NC(=O)Cn2nc(C(F)(F)F)c3c2C(F)(F)[C@@H]2C[C@H]32)n1)S(C)(=O)=O [Compound 12, 2-amino-N-(4-chloro-7-(2-((S)-1-(2-((3bS,4aR)-5,5-difluoro (trifluoromethyl)-3b,4,4a,5-tetrahydro-1H-cyclopropa[3,4]cyclopenta[1,2-c]pyrazolyl)acetamido)-2-(3,5-difluorophenyl)ethyl)-6-(3-methyl-3-(methylsulfonyl)but-1-ynyl)pyridin-3-yl)-1-(2,2,2-trifluoroethyl)-1H-indazol-3-yl)-N-(methylsulfonyl)acetamide] | 65 μM | 8 μM |  | 
CC(C)[C@@H](C(=O)N(c1nn(CC(F)(F)F)c2c(-c3ccc(C#CC(C)(C)S(C)(=O)=O)nc3[C@H](Cc3cc(F)cc(F)c3)NC(=O)Cn3nc(C(F)(F)F)c4c3C(F)(F)[C@@H]3C[C@H]43)ccc(Cl)c12)S(C)(=O)=O)N(C)C [Compound 8, N-(4-chloro-7-(2-((S)-1-(2-((3bS,4aR)-5,5-difluoro-3-(trifluoromethyl)-3b,4,4a,5-tetrahydro-1H-cyclopropa[3,4]cyclopenta[1,2-c]pyrazol-1-yl)acetamido)-2-(3,5-difluorophenyl)ethyl)-6-(3-methyl-3-(methylsulfonyl)but-1-yn-1-yl)pyridin-3-yl)-1-(2,2,2-trifluoroethyl)-1H-indazol-3-yl)-2-(dimethylamino)-3-methyl-N-(methylsulfonyl)butanamide] | 51 μM | 1 μM |  | 
CC(C)(C#Cc1ccc(-c2ccc(Cl)c3c(N(C(=O)CN(CC(=O)O)CC(=O)O)S(C)(=O)=O)nn(CC(F)(F)F)c23)c([C@H](Cc2cc(F)cc(F)c2)NC(=O)Cn2nc(C(F)(F)F)c3c2C(F)(F)[C@@H]2C[C@H]32)n1)S(C)(=O)=O [Compound 23] | 14 μM | 22 μM |  | 
CC(C)(C#Cc1ccc(-c2ccc(Cl)c3c(N(C(=O)C[N+](C)(C)C)S(C)(=O)=O)nn(CC(F)(F)F)c23)c([C@H](Cc2cc(F)cc(F)c2)NC(=O)Cn2nc(C(F)(F)F)c3c2C(F)(F)[C@@H]2C[C@H]32)n1)S(C)(=O)=O [Compound 5, 2-(N-(4-chloro-7-(2-((S)-1-(2-((3bS,4aR)-5,5-difluoro (trifluoromethyl)-3b,4,4a,5-tetrahydro-1H-cyclopropa[3,4]cyclopenta[1,2-c]pyrazolyl)acetamido)-2-(3,5-difluorophenyl)ethyl)-6-(3-methyl-3-(methylsulfonyl)but-1-ynyl)pyridin-3-yl)-1-(2,2,2-trifluoroethyl)-1H-indazol-3-yl)methylsulfonamido)-N,N,N-trimethyl-2-oxoethan-1-aminium] | 45 μM | 6 μM |  | 
CC(C)(CC(=O)N(c1nn(CC(F)(F)F)c2c(-c3ccc(C#CC(C)(C)S(C)(=O)=O)nc3[C@H](Cc3cc(F)cc(F)c3)NC(=O)Cn3nc(C(F)(F)F)c4c3C(F)(F)[C@@H]3C[C@H]43)ccc(Cl)c12)S(C)(=O)=O)c1c(CC(=O)N[C@@H](CC(=O)O)C(=O)O)cc(C(N)=O)cc1OP(=O)(O)O [Compound 69, (2-(5-carbamoyl-2-(4-(N-(4-chloro-7-(2-((S)-1-(2-((3bS,4aR)-5,5-difluoro-3-(trifluoromethyl)-3b,4,4a,5-tetrahydro-1H-cyclopropa[3,4]cyclopenta[1,2-c]pyrazol-1-yl)acetamido)-2-(3,5-difluorophenyl)ethyl)-6-(3-methyl-3-(methylsulfonyl)but-1-yn-1-yl)pyridin-3-yl)-1-(2,2,2-trifluoroethyl)-1H-indazol-3-yl)methylsulfonamido)-2-methyl-4-oxobutan-2-yl)-3-(phosphonooxy)phenyl)acetyl)-L-aspartic acid] |  |  | 3/75 μM | 3/75 μM
CC(C)(CC(=O)N(c1nn(CC(F)(F)F)c2c(-c3ccc(C#CC(C)(C)S(C)(=O)=O)nc3[C@H](Cc3cc(F)cc(F)c3)NC(=O)Cn3nc(C(F)(F)F)c4c3C(F)(F)[C@@H]3C[C@H]43)ccc(Cl)c12)S(C)(=O)=O)c1c(CC(=O)N[C@@H](CC(=O)O)C(=O)O)cccc1OP(=O)(O)O [Compound 71, (2-(2-(4-(N-(4-chloro-7-(2-((S)-1-(2-((3bS,4aR)-5,5-difluoro-3-(trifluoromethyl)-3b,4,4a,5-tetrahydro-1H-cyclopropa[3,4]cyclopenta[1,2-c]pyrazol-1-yl)acetamido)-2-(3,5-difluorophenyl)ethyl)-6-(3-methyl-3-(methylsulfonyl)but-1-yn-1-yl)pyridin-3-yl)-1-(2,2,2-trifluoroethyl)-1H-indazol-3-yl)methylsulfonamido)-2-methyl-4-oxobutan-2-yl)-3-(phosphonooxy)phenyl)acetyl)-L-aspartic acid] |  |  | 2/88 μM | 2/88 μM
CN(C)CCCC[C@H](N)C(=O)N(c1nn(CC(F)(F)F)c2c(-c3ccc(C#CC(C)(C)S(C)(=O)=O)nc3[C@H](Cc3cc(F)cc(F)c3)NC(=O)Cn3nc(C(F)(F)F)c4c3C(F)(F)[C@@H]3C[C@H]43)ccc(Cl)c12)S(C)(=O)=O [Compound 16, ((S)-2-amino-N-(4-chloro-7-(2-((S)-1-(2-((3bS,4aR)-5,5-difluoro-3-(trifluoromethyl)-3b,4,4a,5-tetrahydro-1H-cyclopropa[3,4]cyclopenta[1,2-c]pyrazolyl)acetamido)-2-(3,5-difluorophenyl)ethyl)-6-(3-methyl-3-(methylsulfonyl)but-1-ynyl)pyridin-3-yl)-1-(2,2,2-trifluoroethyl)-1H-indazol-3-yl)-6-(dimethylamino)-N-(methylsulfonyl)hexanamide)] | 92 μM | 20 μM |  | 
